The source of these data is patent publication US5091403A, “Sulfinyl imidazole derivatives and antiulcer agents containing the same” (Nippon Chemiphar Co., Ltd., priority 1989, dated 1992).

The target of series [1] is T1, H^+ +K^+ ATPase (Oryctolagus cuniculus, UniProt P27112).
T1 construct: a rabbit gastric mucosa were isolated; from tissue; host or cells: rabbit gastric mucosa; vesicles from a discontinuous Ficoll gradient
The series is described as follows: H^+ +K^+ ATPase Inhibitory Effects (Test 2). Type of series: biochemical, rabbit. The note with it: read-out: H^+ + K^+ ATPase inhibitory action IC50. How it is done:
(§1) Following the method of Forte et al (J. Applied Physiol., 32, 714.717 (1972)), a rabbit gastric mucosa were isolated. A vesicle containing H^+ +K^+ ATPase was prepared by centrifuging the cells in Ficoll of discontinuous density gradient according to G. Saccomani et al (Biochim. Biophys. Acta, 465. 311-330 (1977)). After the enzyme was incubated at room temperature for 25 min. in 0.5 ml of a solution which contained 5 mM of an imidazole buffer (pH 6.0) and 2 × 10^-4 M of 2-[2-(2-methoxyethylamino)benzylsulfinyl] imidazole (the compound of Example 1; the test compound), the mixture was heated to 37° C. The mixture was then allowed to stand for further 5 min. To the mixture was added 0.5 ml of a solution which contained 4 mM of magnesium chloride, 80 mM of an imidazole buffer (pH 7.4), 20 mM of potassium chloride and 4 mM of ATP. The resulting mixture was reacted at 37° C. for 15 min. and 1 ml of 24 % trichloroacetic acid was then added to terminate the reaction. The inorganic phosphorus liberated was quantitatively determined by the method proposed by Taussky and Shorr (J. Biol. Chem., 202, 675-685 (1953)).
(§2) The above procedure was repeated except for not using potassium chloride to determine […] in the absence of potassium chloride. The desired K^+ -dependent ATPase activity was calculated by subtracting the ATPase activity value determined in the absence of KCl from the ATPase activity value determined in the presence of KCl.
the enzyme was prepared in the same manner described in the above Test 1. After the enzyme was incubated at room temperature for 25 min. in 0.5 ml of a solution which contained 5 mM of an imidazole buffer (pH 6.0 or pH 7.4) and various concentrations of test compound, the mixture was heated to 37° C. The mixture was then allowed to stand for further 5 min. The value of H^+ +K^+ ATPase inhibitory action of each test compound was determined int he same manner described in the above Test 1.

The subject of series [2] is secretion of gastric acid. The series is described as follows: Inhibitory action against the secretion of gastric acid (Test I), pylorus-ligated rats. In kind it is in vivo, rat (male Donryu). As to conditions: intraduodenally, 4 hours, vs vehicle control. How it is done: Male Donryu rats having a body weight of 200 to 250 g were fasted (while allowing free access to water) for 24 hrs. in accordance with the conventional method [Shay, H. et al, Gastroenterology, 5, 43.61 (1945)]. Under ether anesthesia the pylorus was ligated and 2-[2-(2-methoxyethylamino)benzylsulfinyl] imidazole (the compound of Example 1; the test compound) was administered intraduodenally. Four hours later, each rat was killed and the stomach was removed to collect the gastric juice. The inhibitory action was determined by comparing the acid output which was determined by titration to pH 7.0 with 0.1.N sodium hydroxide by means of an automatic titrator, with the corresponding value of a control rat prepared in the same manner except that a vehicle alone was administered.

Series [3] concerns the target T1, H^+ +K^+ ATPase. The series is described as follows: H^+ +K^+ ATPase Inhibitory Effects (Test 1). In kind it is biochemical, rabbit. As to conditions: 2 × 10^-4 M test compound; incubation at pH 6.0, 25 min, room temperature; read-out: value of H^+ +K^+ ATPase inhibitory action. The procedure:
as §1, with “The resulting mixture was reacted at 37° C. for 15 min. and 1 ml of 24 % trichloroacetic acid was then added to terminate the reaction.” left out
as §2

The subject of series [4] is secretion of gastric acid. The series is described as follows: Inhibitory action against the secretion of gastric acid (Test II), Heidenhain pouch dogs, histamine, intravenous. In kind it is in vivo, dog (male beagle). The note with it: 3 mg/kg, intravenously, one hour after initiation of histamine; 30 min post-drug vs pre-drug. How it is done: (§3) Heidenhain pouch dogs produced from male beagle dogs were fasted. To the dogs were then administered intra venously histamine hydrochloride (gastric juice secretion inducing agent) continuously at a dose of 160 μg/kg/hr. The gastric juice was collected at an interval of 15 min. to measure the amount of gastric juice and acid output to determine an acid secretion amount (mEq/15 min).
The test compound was intravenously administered to the dogs at one hour after the initiation of histamine ad ministration.
The inhibitory action was determined by comparing the acid secretion amount between pre-drug value (just before drug administration) and post-drug value (30 min. after drug administration).

Series [5] has as its system secretion of gastric acid. The series is described as follows: Inhibitory action against the secretion of gastric acid (Test II, other experiment), Heidenhain pouch dogs, histamine, oral. In kind it is in vivo, dog (male beagle). As to conditions: orally, 2 hours before initiation of histamine, vs vehicle control dog. The procedure:
as §3
At the other experiment, the test compounds mere administrated orally 2 hours before the initiation of histamine administration, and the inhibitory action was determined by comparing the acid secretion amount wit the corresponding amount of a control dog prepared in the same manner except that a vehicle alone was administered.

The next series can be described thus: Acute toxicity test. In kind it is in vivo, rat (male SD). As to conditions: orally, observed for 2 days. From the text: Male SD rats having a body weight of about 190 g were orally administered with compound of Example 8. The rats were then observed for 2 days.

pIC50: −log10 of the molar value. Read-outs that look alike come from different tables or passages of the source.

T1 sequence (P27112 whole entry): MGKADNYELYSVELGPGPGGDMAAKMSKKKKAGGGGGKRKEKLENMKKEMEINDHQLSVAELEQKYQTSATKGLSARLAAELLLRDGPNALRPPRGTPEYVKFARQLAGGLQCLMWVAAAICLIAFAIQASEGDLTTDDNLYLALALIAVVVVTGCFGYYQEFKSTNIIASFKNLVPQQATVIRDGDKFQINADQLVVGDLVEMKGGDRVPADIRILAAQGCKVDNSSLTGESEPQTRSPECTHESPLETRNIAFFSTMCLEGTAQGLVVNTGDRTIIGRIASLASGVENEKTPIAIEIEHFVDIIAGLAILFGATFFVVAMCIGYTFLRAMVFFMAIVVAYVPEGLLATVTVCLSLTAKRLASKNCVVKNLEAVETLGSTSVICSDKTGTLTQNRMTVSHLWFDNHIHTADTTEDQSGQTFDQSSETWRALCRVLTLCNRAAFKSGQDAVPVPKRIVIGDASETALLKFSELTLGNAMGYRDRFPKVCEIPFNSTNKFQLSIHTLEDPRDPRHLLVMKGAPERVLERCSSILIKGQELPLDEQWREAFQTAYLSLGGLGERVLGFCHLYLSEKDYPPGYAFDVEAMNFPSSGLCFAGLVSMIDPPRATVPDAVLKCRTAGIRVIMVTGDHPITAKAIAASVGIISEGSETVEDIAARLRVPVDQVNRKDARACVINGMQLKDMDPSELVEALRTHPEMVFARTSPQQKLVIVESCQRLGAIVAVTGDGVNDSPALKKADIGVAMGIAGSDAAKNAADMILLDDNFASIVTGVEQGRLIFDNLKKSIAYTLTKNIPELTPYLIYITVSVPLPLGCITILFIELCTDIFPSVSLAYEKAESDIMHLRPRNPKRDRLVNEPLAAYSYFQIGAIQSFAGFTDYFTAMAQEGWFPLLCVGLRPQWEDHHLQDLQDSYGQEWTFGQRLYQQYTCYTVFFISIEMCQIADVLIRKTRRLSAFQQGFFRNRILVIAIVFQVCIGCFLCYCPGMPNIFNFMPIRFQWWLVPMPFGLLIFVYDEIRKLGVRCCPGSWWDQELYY
T1 sequence (P18597 whole entry partner): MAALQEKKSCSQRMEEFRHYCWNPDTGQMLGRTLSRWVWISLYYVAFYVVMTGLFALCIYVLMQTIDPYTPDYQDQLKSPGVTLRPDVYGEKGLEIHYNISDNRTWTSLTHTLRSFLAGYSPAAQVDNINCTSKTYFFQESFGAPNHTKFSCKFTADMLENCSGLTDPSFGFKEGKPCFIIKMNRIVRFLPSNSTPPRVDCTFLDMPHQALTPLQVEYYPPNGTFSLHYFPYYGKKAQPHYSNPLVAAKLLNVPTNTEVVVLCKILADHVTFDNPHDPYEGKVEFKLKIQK

As to `COCCNc1ccccc1C[S+]([O-])c1ncc[nH]1` (stereo not shown) [Example 1, 2-[2-(2-methoxyethylamino)benzylsulfinyl]imidazole], the negative-log IC50 (pIC50) – broadly, −log10 of the IC50, conventionally taken in molar units – on H^+ +K^+ ATPase [1] (pH 6.0) is 4.37; at H^+ +K^+ ATPase [1] (pH 7.4) it was 3.74. Also, the results for the “inhibitory action (acid output)” value in series [2] (10 mg/kg) and in series [2] (30 mg/kg) were 75.9% and 94.5%, respectively. Besides, the inhibition at 200 µM at H^+ +K^+ ATPase [3] stood at 73.1%. In addition, the “Suppressive action (acid secretion amount)” value (“Suppressive action” below) in series [4] is 89%.
Consider `CC(C)OCCNc1ccccc1C[S+]([O-])c1ncc[nH]1` (stereo not shown) [Example 2, 2-[2-(2-isopropoxyethylamino)benzylsulfinyl]imidazole], for which the negative logarithm of the IC50 (pIC50) at H^+ +K^+ ATPase [1] (pH 6.0) is 4.34; on H^+ +K^+ ATPase [1] (pH 7.4), 3.72. Besides, the “Suppressive action” value in series [4] came to 97%.
For the compound `COCCNc1ccc(C)cc1C[S+]([O-])c1ncc[nH]1` (stereo not shown) [Example 3, 2-[2-(2-methoxyethylamino)-5-methylbenzylsulfinyl]imidazole], the “Suppressive action” value in series [5] was 100%; in series [4] it was 85%. Moreover, the results for the negative logarithm of the IC50 (pIC50) on H^+ +K^+ ATPase [1] (pH 6.0) and at H^+ +K^+ ATPase [1] (pH 7.4) were 4.60 and less than 3.52, respectively.
As for `COCCNc1cccc(C)c1C[S+]([O-])c1ncc[nH]1` (stereo not shown) [Example 4, 2-[2-(2-methoxyethylamino)-6-methylbenzylsulfinyl]imidazole], the pIC50 was 5.36 on H^+ +K^+ ATPase [1] (pH 6.0) and 4.59 on H^+ +K^+ ATPase [1] (pH 7.4). Moreover, the “Suppressive action” value in series [4] was 89%.
On the same counts, the results for `CCOCCNc1ccccc1C[S+]([O-])c1ncc[nH]1` (stereo not shown) [Example 5, 2-[2-(2-ethoxyethylamino)benzylsulfinyl]imidazole] are 4.66, 4.28 and 98%.
As to `COCCCNc1ccccc1C[S+]([O-])c1ncc[nH]1` (stereo not shown) [Example 6, 2-[2-(3-methoxypropylamino)benzylsulfinyl]imidazole], the pIC50 on H^+ +K^+ ATPase [1] (pH 6.0) is 4.89; at H^+ +K^+ ATPase [1] (pH 7.4), 4.22. Further, in series [4], the “Suppressive action” value was 92%.
Regarding `CCOCCNc1ccc(C)cc1C[S+]([O-])c1ncc[nH]1` (stereo not shown) [Example 7, 2-[2-(2-ethoxyethylamino)-5-methylbenzylsulfinyl] imidazole], the pIC50 on H^+ +K^+ ATPase [1] (pH 6.0) is 4.74; on H^+ +K^+ ATPase [1] (pH 7.4), 4.03.
With `COCCNc1cc(C)c(OC)c(C)c1C[S+]([O-])c1ncc[nH]1` (stereo not shown) [Example 8, 2-[4,6-dimethyl-5-methoxy-2-(2-methoxyethylamino)benzylsulfinyl]imidazole], in series [5], the “Suppressive action” value is on record as 100%. Moreover, the pIC50 was 6.34 on H^+ +K^+ ATPase [1] (pH 6.0) and 4.96 on H^+ +K^+ ATPase [1] (pH 7.4). Moreover, the MLD in “Acute toxicity test” is ≥ 1,000 mg/kg.
